# Where two headings read alike, the source gives them in different places.
# How the values were obtained:
# CYP505A30 [1] = biological target: T1, CYP505A30 (Thermothelomyces thermophilus, UniProt G2QDZ3); conditions: CYP505A30, GC–MS
# P450 BM3 [2] = conditions: P450 BM3, similar conditions; cited from earlier work
# P450 BM3 [3] = test system: P450 BM3; parameters: method as in PMID 1727637; conditions: cited from earlier work
# CYP505A30 [4] = biological target: T1, CYP505A30; assay: Steady-state fatty acid-dependent NADPH oxidation; conditions: fatty acid-induced NADPH oxidation, 25 °C, 200 μM NADPH
# CYP505A30 [5] = biological target: T1, CYP505A30; assay: UV–visible spectral binding titration with intact CYP505A30; conditions: for HS (%): extent of HS heme iron accumulated, intact CYP505A30, estimated to nearest 5%
# CYP505A30 heme domain = CYP505A30 heme domain (Thermothelomyces thermophilus, UniProt G2QDZ3); assay: UV–visible spectral binding titration with CYP505A30 heme domain; conditions: for HS (%): extent of HS heme iron accumulated, heme domain, estimated to nearest 5%
# CYP505A30 [6] = biological target: T1, CYP505A30; assay: Stopped-flow kinetics of flavin reduction by NAD(P)H; assay type: biochemical, Myceliophthora thermophila
# CYP505A30 [7] = biological target: T1, CYP505A30
# CYP505A30 [8] = biological target: T1, CYP505A30; conditions: for kcat: reduction of the electron acceptor, 25 °C
# T1 sequence (G2QDZ3 entry or part of it): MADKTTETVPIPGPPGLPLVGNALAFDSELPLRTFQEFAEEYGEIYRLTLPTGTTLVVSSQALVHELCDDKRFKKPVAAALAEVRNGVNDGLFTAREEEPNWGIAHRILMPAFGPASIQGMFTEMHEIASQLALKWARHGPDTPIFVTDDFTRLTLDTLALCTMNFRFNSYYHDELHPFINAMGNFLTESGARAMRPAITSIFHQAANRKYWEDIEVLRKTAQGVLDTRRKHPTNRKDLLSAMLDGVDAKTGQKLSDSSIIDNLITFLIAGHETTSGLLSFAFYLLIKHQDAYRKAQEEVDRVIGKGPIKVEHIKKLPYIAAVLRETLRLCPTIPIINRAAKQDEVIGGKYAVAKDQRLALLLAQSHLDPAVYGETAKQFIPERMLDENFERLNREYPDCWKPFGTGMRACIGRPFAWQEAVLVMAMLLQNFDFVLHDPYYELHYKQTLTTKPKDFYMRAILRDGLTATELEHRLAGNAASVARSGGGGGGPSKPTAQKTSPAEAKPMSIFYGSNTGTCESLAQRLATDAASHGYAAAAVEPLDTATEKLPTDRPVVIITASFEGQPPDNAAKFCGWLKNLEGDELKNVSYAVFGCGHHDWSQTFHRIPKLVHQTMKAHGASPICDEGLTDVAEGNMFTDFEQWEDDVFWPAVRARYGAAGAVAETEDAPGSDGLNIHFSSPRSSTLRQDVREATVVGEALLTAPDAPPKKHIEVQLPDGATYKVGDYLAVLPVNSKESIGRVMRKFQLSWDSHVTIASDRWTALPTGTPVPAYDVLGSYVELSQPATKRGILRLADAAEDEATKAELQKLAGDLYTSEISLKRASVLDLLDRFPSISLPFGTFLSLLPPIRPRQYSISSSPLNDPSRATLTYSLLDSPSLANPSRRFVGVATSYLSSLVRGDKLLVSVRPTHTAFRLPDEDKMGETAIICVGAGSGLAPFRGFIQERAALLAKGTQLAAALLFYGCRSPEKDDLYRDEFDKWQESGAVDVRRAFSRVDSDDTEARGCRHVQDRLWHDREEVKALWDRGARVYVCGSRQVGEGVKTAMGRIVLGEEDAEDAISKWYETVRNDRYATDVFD
# Sequence of CYP505A30 heme domain (G2QDZ3 entry or part of it): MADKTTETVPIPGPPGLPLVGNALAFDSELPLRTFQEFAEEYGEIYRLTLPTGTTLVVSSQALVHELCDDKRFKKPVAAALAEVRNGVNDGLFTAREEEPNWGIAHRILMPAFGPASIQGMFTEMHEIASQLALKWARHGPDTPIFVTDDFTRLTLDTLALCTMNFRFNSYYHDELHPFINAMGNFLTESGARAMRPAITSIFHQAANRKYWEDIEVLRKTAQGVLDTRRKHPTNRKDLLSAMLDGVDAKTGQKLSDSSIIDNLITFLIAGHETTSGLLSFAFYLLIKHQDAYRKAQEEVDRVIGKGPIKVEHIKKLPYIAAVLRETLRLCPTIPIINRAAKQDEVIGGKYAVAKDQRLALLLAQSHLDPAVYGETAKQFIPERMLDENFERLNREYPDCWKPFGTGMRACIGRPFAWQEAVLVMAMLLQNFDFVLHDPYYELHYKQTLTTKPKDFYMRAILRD
compound,measurement,setting,value
CCCCCCCCCCCCCC(=O)O [tetradecanoic acid],ω-1 hydroxylated product proportion,CYP505A30 [1],63%
same,ω-2 hydroxylated product proportion,CYP505A30 [1],~28%
same,ω-3 hydroxylated product proportion,CYP505A30 [1],9%
same,ω-1 hydroxylated product proportion,CYP505A30 [1]; listed as myristic acid,approximately 63%
same,kcat,P450 BM3 [2],30.8 ± 1.5 s^–1
same,ω-1 hydroxylated product proportion,P450 BM3 [3],58%
same,ω-2 hydroxylated product proportion,P450 BM3 [3],21%
same,ω-3 hydroxylated product proportion,P450 BM3 [3],21%
same,kcat,CYP505A30 [4],1.21 ± 0.1 s^–1
same,Kd,"CYP505A30 [5]; KD, substrate binding to intact CYP505A30, heme absorbance change, 25 °C",7.4 ± 0.2 µM
same,HS (%),CYP505A30 [5],80%
same,Kd,CYP505A30 heme domain,3.9 ± 0.3 µM
same,HS (%),CYP505A30 heme domain,85%
CCCCCCCCCCCCCCCCC(=O)O [heptadecanoic acid],Kd,CYP505A30 [5],4.1 ± 0.7 µM
same,HS (%),CYP505A30 [5],10%
same,Kd,CYP505A30 heme domain,8.7 ± 0.8 µM
same,HS (%),CYP505A30 heme domain,20%
"NC(=O)C1=CN([C@@H]2O[C@H](COP(=O)(O)OP(=O)(O)OC[C@H]3O[C@@H](n4cnc5c(N)ncnc54)[C@H](OP(=O)(O)O)[C@@H]3O)[C@@H](O)[C@H]2O)C=CC1 [NADPH, reduced nicotinamide adenine dinucleotide phosphate]",gradient of kobs vs temperature,"CYP505A30 [6]; 10 to 35 °C, 1 mM NADPH",14.5 ± 1.5 s^–1 °C^–1
same,klim flavin reduction,CYP505A30 [6]; 10 °C,~82 s^–1
same,kobs flavin reduction,"CYP505A30 [6]; 10 °C, across [NADPH] range up to 1.2 mM",82.4 ± 9.1 s^–1
same,klim flavin reduction,CYP505A30 [6]; 25 °C,~250 s^–1
same,kobs flavin reduction (highest rate constant),"CYP505A30 [6]; 35 °C, 1 mM NADPH",441 ± 11 s^–1
CCCCCCCCCC(=O)O [decanoic acid],HS (%),CYP505A30 [7],30%
same,Kd,CYP505A30 [5]; KD,21.1 ± 2 µM
c1ccc(-n2ccnc2)cc1 [1-phenylimidazole],Kd,"CYP505A30 [5]; KD, imidazole-based inhibitors, distal coordination of heme iron, intact CYP505A30",3.4 ± 0.2 µM
"NC(=O)C1=CN([C@@H]2O[C@H](COP(=O)(O)OP(=O)(O)OC[C@H]3O[C@@H](n4cnc5c(N)ncnc54)[C@H](O)[C@@H]3O)[C@@H](O)[C@H]2O)C=CC1 [NADH, reduced nicotinamide adenine dinucleotide]",klim flavin reduction,CYP505A30 [6]; 10 °C,42.0 ± 3.2 s^–1
"cytochrome c: Cytochrome c (horse heart; Sigma-Aldrich), electron acceptor substrate for CPR enzymes",fold slower kcat than the BM3 enzyme,CYP505A30 [8]; BM3 under similar conditions,approximately 7.5 fold
same,Km,"CYP505A30 [8]; read-out: KM (electron acceptor), NADPH as electron donor",79.3 ± 10.3 µM
same,kcat,CYP505A30 [8]; NADH as electron donor,29.5 ± 2.4 s^–1
same,kcat,CYP505A30 [8]; NADPH as electron donor,29.7 ± 0.7 s^–1
Clc1ccc(COC(Cn2ccnc2)c2ccc(Cl)cc2Cl)cc1 (stereo not shown) [econazole],Kd,CYP505A30 [5]; KD,10 ± 0.9 µM

# — PMC6044835, “Expression, Purification, and Biochemical Characterization of the Flavocytochrome P450 CYP505A30 from Myceliophthora thermophila” (ACS Omega, 2017)
